Consider one compound from US20230201292A1, “HERBAL FORMULATION FOR THE PREVENTION AND MANAGEMENT OF TYPE-2 DIABETES MELLITUS AND ASSOCIATED MICROVASCULAR COMPLICATIONS” (priority 2021, published 2023).

The experiment relates to Streptozotocin (STZ) treated diabetic rats. The experiment in a line: Streptozotocin (STZ) treated diabetic rats: blood glucose, hs CRP, IL-6, adiponectin. The experiment is classed as in vivo. As to conditions: for Blood glucose level: STZ (65 mg/kg) diabetic rats; for Adiponectin / IL-6 / hs CRP: STZ diabetic rats.

Regarding `C[C@H]1O[C@H](O[C@H]2[C@H](O)[C@@H](O)[C@@H](O[C@H]3[C@H](O)[C@@H](O)C(O)O[C@@H]3CO)O[C@@H]2CO)[C@H](O)[C@@H](O)[C@@H]1N[C@H]1C=C(CO)[C@@H](O)[C@H](O)[C@H]1O` (stereo partly drawn) [Acarbose], where the note is “7th Days”, the Blood glucose level was 228.33 ± 19.44 mg/day, the Adiponectin worked out at 8.87 ± 2.10 µg/mL, the IL-6 stood at 2.87 ± 0.25 pg/mL and the “hs CRP” value is 6.78 ± 1.52 mg/L. For the setting “14th Days”, the Blood glucose level was 192.74 ± 15.18 mg/day, the Adiponectin was 9.65 ± 1.63 µg/mL, the IL-6 amounted to 2.49 ± 0.32 pg/mL and the “hs CRP” value is listed as 5.43 ± 0.75 mg/L. Moreover, under “28th Days”, the Blood glucose level came to 157.51 ± 10.24 mg/day, the Adiponectin turned out to be 10.23 ± 2.14 µg/mL, the IL-6 came out at 2.23 ± 0.26 pg/mL and the “hs CRP” value came to 4.97 ± 0.87 mg/L.
